Measured values reported in the Kinase Knowledgebase extract (Sharma et al. 2016).
pIC50: −log10 of the molar value.

What follows are compounds tested against EGFR (UniProt P00533).
EGFR, sequence (P00533 whole entry, looked up): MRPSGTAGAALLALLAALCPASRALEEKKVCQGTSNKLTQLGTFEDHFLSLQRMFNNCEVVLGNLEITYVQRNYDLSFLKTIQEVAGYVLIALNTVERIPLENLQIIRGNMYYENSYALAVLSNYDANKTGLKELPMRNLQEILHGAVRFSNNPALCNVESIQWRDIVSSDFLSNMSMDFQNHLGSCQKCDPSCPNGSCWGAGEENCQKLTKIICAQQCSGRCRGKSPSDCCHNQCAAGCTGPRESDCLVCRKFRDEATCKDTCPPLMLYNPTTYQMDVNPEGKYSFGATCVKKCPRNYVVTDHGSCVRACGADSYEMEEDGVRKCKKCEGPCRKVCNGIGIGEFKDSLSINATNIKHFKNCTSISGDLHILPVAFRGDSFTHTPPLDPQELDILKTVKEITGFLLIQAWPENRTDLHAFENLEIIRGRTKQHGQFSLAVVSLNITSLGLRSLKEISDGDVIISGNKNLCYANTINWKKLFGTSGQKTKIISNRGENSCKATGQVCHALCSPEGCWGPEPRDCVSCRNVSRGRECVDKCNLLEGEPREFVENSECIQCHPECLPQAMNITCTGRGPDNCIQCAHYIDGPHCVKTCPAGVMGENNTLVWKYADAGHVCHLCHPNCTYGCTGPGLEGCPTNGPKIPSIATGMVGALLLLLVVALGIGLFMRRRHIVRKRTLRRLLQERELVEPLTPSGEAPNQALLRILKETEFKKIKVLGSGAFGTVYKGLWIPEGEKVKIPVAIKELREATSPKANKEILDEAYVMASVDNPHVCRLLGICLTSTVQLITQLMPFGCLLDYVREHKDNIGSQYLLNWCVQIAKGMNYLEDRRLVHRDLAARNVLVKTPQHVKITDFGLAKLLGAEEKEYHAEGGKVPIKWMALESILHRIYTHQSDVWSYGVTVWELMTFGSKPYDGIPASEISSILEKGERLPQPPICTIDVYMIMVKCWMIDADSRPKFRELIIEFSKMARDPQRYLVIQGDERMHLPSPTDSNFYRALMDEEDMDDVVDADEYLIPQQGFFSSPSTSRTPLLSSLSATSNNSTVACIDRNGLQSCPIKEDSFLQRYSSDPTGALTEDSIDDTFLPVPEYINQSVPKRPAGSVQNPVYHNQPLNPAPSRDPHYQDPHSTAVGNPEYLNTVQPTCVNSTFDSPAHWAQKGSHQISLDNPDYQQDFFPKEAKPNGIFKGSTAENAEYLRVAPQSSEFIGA

SMILES | pIC50
CCc1c(CO)c(Br)n2ncnc(Nc3ccc4c(cnn4Cc4ccccc4)c3)c12 | 4.60 to 8.52
COC(=O)c1cn2ncnc(Nc3cccc(O)c3)c2c1C | 4.60 to 8.52
CCOC(=O)c1cn2ncnc(Nc3ccc(Br)cc3)c2c1CC | 4.60 to 8.52
COc1c(C(=O)NCCCn2cncn2)cn2ncnc(C3C(=O)Nc4ccccc43)c12 (centres undefined) | 4.60 to 8.52
Cc1c(C(=O)OCc2ccccc2)cn2ncnc(C3C(=O)Nc4ccccc43)c12 (centres undefined) | 4.60 to 8.52
CCc1c(C)c2c(Nc3ccc(C)c(O)c3)ncnn2c1C | 4.60 to 8.52
CCOC(=O)c1cn2ncnc(Nc3ccc4cn[nH]c4c3)c2c1CC | 4.60 to 8.52
Cc1nc(Nc2ccc(C)c(O)c2)c2c(C)c(C(N)=O)cn2n1 | 4.60 to 8.52
COC(=O)c1cn2ncnc(Nc3ccc(C)c([N+](=O)[O-])c3)c2c1C | 4.60 to 8.52
Cc1c(C(=O)NCCCCN2CCOCC2)cn2ncnc(C3C(=O)Nc4ccccc43)c12 (centres undefined) | 4.60 to 8.52
CCCc1c(C(=O)OCC)cn2ncnc(Nc3ccc4c(cnn4Cc4ccccc4)c3)c12 | 4.60 to 8.52
COC(=O)c1cn2ncnc(Nc3ccc(C)c(OC)c3)c2c1C | 4.60 to 8.52
CCOC(=O)c1cn2ncnc(C3C(=O)Nc4ccccc43)c2c1C(=O)OCC (centres undefined) | 4.60 to 8.52
CNS(=O)(=O)c1ccc2c(c1)C(c1ncnn3cc(C(=O)OC)c(C)c13)C(=O)N2 (centres undefined) | 4.60 to 8.52
CCOC(=O)c1cn2ncnc(Nc3ccc4c(cnn4Cc4ccccc4)c3)c2c1CC | 4.60 to 8.52
COC(=O)c1cn2ncnc(Nc3ccc4c(c3)C(=O)NC4=O)c2c1C | 4.60 to 8.52
COc1c(NCCCCN2CCOCC2)cn2ncnc(C3C(=O)Nc4ccccc43)c12 (centres undefined) | 4.60 to 8.52
CCc1ccc(Nc2ncnn3cc(C(=O)NCCCN4CCOCC4)c(C)c23)cc1O | 4.60 to 8.52
CCCCNS(=O)(=O)c1cccc(Nc2ncnn3cc(C(=O)OC)c(C)c23)c1 | 4.60 to 8.52
COCCNC(=O)c1cn2ncnc(C3C(=O)Nc4ccccc43)c2c1C (centres undefined) | 4.60 to 8.52
CCc1c(C(=O)OC)cn2ncnc(Nc3ccc4c(cnn4Cc4ccccc4)c3)c12 | 4.60 to 8.52
CCOC(=O)c1cn2ncnc(C3C(=O)Nc4ccccc43)c2c1OCC (centres undefined) | 4.60 to 8.52
Cc1c(N)cn2ncnc(C3C(=O)Nc4ccccc43)c12 (centres undefined) | 4.60 to 8.52

SMILES | pIC50
CCOC(=O)c1c(CC)c2c(Nc3ccc4c(cnn4Cc4ccccc4)c3)ncnn2c1Br | 4.60 to 8.52
CCc1ccc(Nc2ncnn3cc(C(=O)OC)c(C)c23)cc1O | 4.60 to 8.52
CCOC(=O)c1cn2ncnc(Nc3ccc(OC)cc3)c2c1CC | 4.60 to 8.52
COC(=O)c1cn2ncnc(C3C(=O)Nc4ccc(S(=O)(=O)N5CCOCC5)cc43)c2c1C (centres undefined) | 4.60 to 8.52
CCOC(=O)c1cn2ncnc(Nc3ccc4c(cnn4Cc4ccccc4)c3)c2c1Cc1ccccc1 | 4.60 to 8.52
COC(=O)c1cn2ncnc(Nc3ccc(C#N)c(O)c3)c2c1C | 4.60 to 8.52
CCOC(=O)c1cn2ncnc(N[C@@H](C)c3ccccc3)c2c1CC | 4.60 to 8.52
Cc1ccc(Nc2ncnn3ccc(C)c23)c(O)c1 | 4.60 to 8.52
CCOC(=O)c1cn2ncnc(C3C(=O)Nc4ccccc43)c2c1CC (centres undefined) | 4.60 to 8.52
COC(=O)c1cn2ncnc(-c3c(O)[nH]c4cc(Br)ccc34)c2c1C | 4.60 to 8.52
COc1c(NCCCCN2CCN(C)CC2)cn2ncnc(C3C(=O)Nc4ccccc43)c12 (centres undefined) | 4.60 to 8.52
COc1cn2ncnc(C3C(=O)Nc4ccccc43)c2c1C (centres undefined) | 4.60 to 8.52
COC(=O)c1cn2ncnc(Nc3ccccc3S(N)(=O)=O)c2c1C | 4.60 to 8.52
CCc1c(C(=O)N(CCCn2ccnc2)c2ccccn2)cn2ncnc(Nc3ccc4c(cnn4Cc4ccccc4)c3)c12 | 4.60 to 8.52
COC(=O)c1cn2ncnc(C3C(=O)Nc4cc(C(F)(F)F)ccc43)c2c1C (centres undefined) | 4.60 to 8.52
COC(=O)c1cn2ncnc(Nc3cccc(S(N)(=O)=O)c3)c2c1C | 4.60 to 8.52
CCOC(=O)c1cn2ncnc(N3CCC4C=CC=CC4C3)c2c1CC (centres undefined) | 4.60 to 8.52
CCc1ccn2ncnc(Nc3ccc(C)c(O)c3)c12 | 4.60 to 8.52
Cc1c(C(=O)CCN2CCOCC2)cn2ncnc(C3C(=O)Nc4ccccc43)c12 (centres undefined) | 4.60 to 8.52
COC(=O)c1cn2ncnc(Nc3ccc(O)c(C(=O)O)c3)c2c1C | 4.60 to 8.52
COC(=O)c1cn2ncnc(Nc3ccc(C)c(C#N)c3)c2c1C | 4.60 to 8.52
COC(=O)c1cn2ncnc(Nc3ccc4cc[nH]c4c3)c2c1C | 4.60 to 8.52
CCC(C)NC(=O)c1cn2ncnc(C3C(=O)Nc4ccccc43)c2c1C (centres undefined) | 4.60 to 8.52

SMILES | pIC50
COC(=O)c1cn2ncnc(Nc3cccc(S(=O)(=O)O)c3)c2c1C | 4.60 to 8.52
CCc1c(C(=O)NCCCn2ccnc2)cn2ncnc(Nc3ccc4c(cnn4Cc4ccccc4)c3)c12 | 4.60 to 8.52
Cc1c(C(=O)NCCN2CCOCC2)cn2ncnc(C3C(=O)Nc4ccccc43)c12 (centres undefined) | 4.60 to 8.52
COC(=O)c1cn2ncnc(-n3c(=O)[nH]c4ccccc43)c2c1C | 4.60 to 8.52
Cc1c(C(=O)NCCCN2CCOCC2)cn2ncnc(Nc3ccc(Br)c(O)c3)c12 | 4.60 to 8.52
CCCc1c(C(=O)OCC)cn2ncnc(Nc3ccc(C)c(O)c3)c12 | 4.60 to 8.52
CCOC(=O)c1cn2ncnc(Nc3ccc(C)cc3)c2c1CC | 4.60 to 8.52
COC(=O)c1cn2ncnc(Nc3cc(CO)ccc3C)c2c1C | 4.60 to 8.52
Cc1c(NS(C)(=O)=O)cn2ncnc(C3C(=O)Nc4ccccc43)c12 (centres undefined) | 4.60 to 8.52
COC(=O)c1cn2ncnc(C3C(=O)Nc4ccc(S(=O)(=O)N(C)C)cc43)c2c1C (centres undefined) | 4.60 to 8.52
CCCCc1ccc(Nc2ncnn3cc(C(=O)OC)c(C)c23)cc1O | 4.60 to 8.52
Cc1ccc(Nc2ncnn3cc(C)c(C)c23)cc1O | 4.60 to 8.52
COC(=O)c1cc2c(C3C(=O)Nc4ccccc43)ncnn2c1 (centres undefined) | 4.60 to 8.52
CCOC(=O)c1cn2ncnc(Nc3ccc(C)c(O)c3)c2c1OCC | 4.60 to 8.52
CCOC(=O)c1cn2ncnc(Nc3ccc(Oc4ccccc4)cc3)c2c1CC | 4.60 to 8.52
CCOC(=O)c1cn2ncnc(Nc3cccc(Br)c3)c2c1CC | 4.60 to 8.52
CCOC(=O)c1cn2ncnc(Nc3ccc(Cl)nc3)c2c1CC | 4.60 to 8.52
COC(=O)c1cn2ncnc(Nc3ccc(C(C)C)c(O)c3)c2c1C | 4.60 to 8.52
COc1cn2ncnc(C3C(=O)Nc4ccccc43)c2c1OC (centres undefined) | 4.60 to 8.52
COC(=O)c1cn2ncnc(Nc3cccc(C(=O)O)c3)c2c1C | 4.60 to 8.52
COc1c(C(=O)NCCCN2CCOCC2)cn2ncnc(C3C(=O)Nc4ccccc43)c12 (centres undefined) | 4.60 to 8.52
COC(=O)c1cn2ncnc(Nc3ccc(C(=O)O)c(O)c3)c2c1C | 4.60 to 8.52
CCOC(=O)c1cn2ncnc(Nc3ccccc3)c2c1CC | 4.60 to 8.52

SMILES | pIC50
CCc1c(C(=O)NCCN2CCOCC2)c(Br)n2ncnc(Nc3ccc4c(cnn4Cc4ccccc4)c3)c12 | 4.60 to 8.52
COC(=O)CCc1cn2ncnc(C3C(=O)Nc4ccccc43)c2c1C (centres undefined) | 4.60 to 8.52
Cc1cc2c(Nc3ccc(Br)cc3F)ncnn2c1 | 4.60 to 8.52
CCCc1c(C(=O)NCCCN2CCOCC2)cn2ncnc(Nc3ccc(C)c(O)c3)c12 | 4.60 to 8.52
COC(=O)c1cn2ncnc(Nc3ccc(OC)cc3)c2c1C | 4.60 to 8.52
Cc1ccc(Nc2ncnn3cc(N)c(C)c23)cc1O | 4.60 to 8.52
COC(=O)c1cn2ncnc(Nc3ccc4c(c3)NCC4)c2c1C | 4.60 to 8.52
COc1c(OCc2ccccc2)cn2ncnc(C3C(=O)Nc4ccccc43)c12 (centres undefined) | 4.60 to 8.52
COC(=O)c1c(OC)c(OC)c2c(C3C(=O)Nc4ccccc43)ncnn12 (centres undefined) | 4.60 to 8.52
Cc1c(OCCCn2nccn2)cn2ncnc(Nc3cccc(Br)c3)c12 | 4.60 to 8.52
COC(=O)c1cn2ncnc(Nc3ccc(C)c(C)c3)c2c1C | 4.60 to 8.52
Cc1nc(C2C(=O)Nc3ccccc32)c2c(C)c(C(N)=O)cn2n1 (centres undefined) | 4.60 to 8.52
COC(=O)c1cn2ncnc(Nc3nc4ccccc4s3)c2c1C | 4.60 to 8.52
Cc1c(C(=O)NCCN2CCCC2)cn2ncnc(C3C(=O)Nc4ccccc43)c12 (centres undefined) | 4.60 to 8.52
Cc1c(NS(=O)(=O)CCCN2CCOCC2)cn2ncnc(C3C(=O)Nc4ccccc43)c12 (centres undefined) | 4.60 to 8.52
CCOC(=O)c1cn2ncnc(Nc3cccc4c3cnn4Cc3ccccc3)c2c1CC | 4.60 to 8.52
CCOC(=O)c1cn2ncnc(NCCc3ccccn3)c2c1CC | 4.60 to 8.52
CCCCNc1ncnn2cc(C(=O)OCC)c(CC)c12 | 4.60 to 8.52
CCOC(=O)c1cn2ncnc(NCc3ccccc3Br)c2c1CC | 4.60 to 8.52
CCOC(=O)c1cn2ncnc(Nc3ccc(C)c(O)c3)c2c1C(=O)OCC | 4.60 to 8.52
COC(=O)c1cn2ncnc(Nc3ccc(C)c(O)c3)c2c1C | 4.60 to 8.52
CCOC(=O)c1cn2ncnc(Nc3ccc(OC)nc3)c2c1C | 4.60 to 8.52
CCc1c(C(=O)OCc2ccccc2)cn2ncnc(Nc3ccc(F)c(Cl)c3)c12 | 4.60 to 8.52

SMILES | pIC50
Cc1c(C(=O)NCCCn2cncn2)cn2ncnc(C3C(=O)Nc4ccccc43)c12 (centres undefined) | 4.60 to 8.52
COC(=O)c1cn2ncnc(C3C(=O)Nc4nc(C)ncc43)c2c1C (centres undefined) | 4.60 to 8.52
COC(=O)c1cn2ncnc(Nc3ccc(OC)c(O)c3)c2c1C | 4.60 to 8.52
Cc1c(C(=O)NCCCN2CCN(C)CC2)cn2ncnc(C3C(=O)Nc4ccccc43)c12 (centres undefined) | 4.60 to 8.52
Cc1ccc(Nc2ncnn3cc(OCCCn4nccn4)c(C)c23)cc1O | 4.60 to 8.52
COCCCNC(=O)c1cn2ncnc(Nc3ccc(C)c(O)c3)c2c1C | 4.60 to 8.52
COC(=O)c1cn2ncnc(Nc3ccc4[nH]nnc4c3)c2c1C | 4.60 to 8.52
COC(=O)c1cn2ncnc(Nc3cc(NS(C)(=O)=O)ccc3C)c2c1C | 4.60 to 8.52
CCOC(=O)c1cn2ncnc(Nc3ccc(C)c(O)c3)c2c1CC | 4.60 to 8.52
CCOC(=O)c1cn2ncnc(NCCOC)c2c1CC | 4.60 to 8.52
COC(=O)c1cn2ncnc(Nc3cccc(C#N)c3)c2c1C | 4.60 to 8.52
CCOC(=O)c1cn2ncnc(NCC3(O)CCCCC3)c2c1CC | 4.60 to 8.52
COC(=O)c1cn2ncnc(Nc3ccc(Br)c(O)c3)c2c1C | 4.60 to 8.52
COC(=O)c1cn2ncnc(C3C(=O)Nc4cc(C#N)ccc43)c2c1C (centres undefined) | 4.60 to 8.52
COC(=O)c1cn2ncnc(Nc3ccc(C)c(N)c3)c2c1C | 4.60 to 8.52
CCOC(=O)c1cn2ncnc(NCC3CCC(C#N)CC3)c2c1CC (centres undefined) | 4.60 to 8.52
Cc1c(NC(=O)NCCCCN2CCOCC2)cn2ncnc(C3C(=O)Nc4ccccc43)c12 (centres undefined) | 4.60 to 8.52
Cc1c(N(C)C)c(CO)n2ncnc(C3C(=O)Nc4ccccc43)c12 (centres undefined) | 4.60 to 8.52
COC(=O)c1cn2ncnc(Nc3ccc(C)c(S(N)(=O)=O)c3)c2c1C | 4.60 to 8.52
CCOC(=O)c1cn2ncnc(NCc3ccccc3)c2c1CC | 4.60 to 8.52
CCc1c(C(=O)N(C)C)cn2ncnc(Nc3ccc4c(cnn4Cc4ccccc4)c3)c12 | 4.60 to 8.52
COC(=O)c1cn2ncnc(Nc3ccc(OC)nc3)c2c1C | 4.60 to 8.52
